Measured values: patent US8754079B2, “Cycloalkyl containing thienopyrimidines for pharmaceutical compositions” (Boehringer Ingelheim International GmbH, priority 2010, dated 2014)

Target: T1, MNK2 (Homo sapiens, UniProt Q9HBH9)
T1 construct: the open reading frames of human Mnk1 and Mnk2a were amplified from cDNA; made in house; host or cells: E. coli BL21
Assay: Mnk2a in vitro kinase assay (indirect fluorescence polarization)
Format: biochemical
Details: pre-activated GST-Mnk2a 2.5 nM, 20 μM ATP, 30 μM substrate peptide
Protocol: Inhibitory potency of compounds against Mnk1, Mnk2a and other kinases was assessed with assays based on a format known to those skilled in the art as the indirect (competitive) fluorescence polarization. The assay detection system comprises a small fluorophore-labeled phospho-peptide (termed ligand) bound to a phospho-specific antibody. The product generated by the kinase reaction competes with the ligand for antibody binding. Based on the larger molecular volume of the bound ligand, which results in a lower rotation rate in solution, its emitted light has a higher degree of polarization than the one from the free ligand.
Example 2a. Mnk1 and Mnk2a in vitro kinase assay
As a source of enzyme, human Mnk1 and human Mnk2a were expressed as GST fusion proteins in E. coli, purified to >80% homogeneity by glutathione affinity chromatography and activated in vitro with pre-activated ERK2. In brief, the open reading frames of human Mnk1 and Mnk2a were amplified from cDNA using the forward/reverse primer pairs
(utilized restriction sites underlined), respectively, and cloned into the BamHI and SalI sites of the vector pGEX-4T1 (Amersham, Sweden, cat. no. 27-4580-01). These constructs allow prokaryotic expression of Mnk1 or Mnk2a as fusion protein with a N-terminal glutathione S-transferase (GST) tag, referred to as GST-Mnk1 or GSTMnk2a. The following expression and purification procedure was identical for GSTMnk1 and GST-Mnk2a, referring in general to GST-Mnk, when not distinguishing between the two isoforms. Expression of GST-Mnk was in E. coli BL21 (Merck Biosciences, Germany, cat. no. 69449). Cells were grown in LB-Bouillon (Merck, Germany, cat. no. 1.10285) supplemented with 100 μg/ml ampicillin (Sigma, Germany, cat. no. A9518) at 37° C. When the culture had reached a density corresponding to an A600 of 0.8, an equal volume of ice cold LB/ampicillin was added, the culture transferred to 25° C. and induced for 4 h with 1 mM isopropyl thiogalactoside (IPTG, Roth, Germany, cat. no. 2316.4). Cells harvested by centrifugation were resuspended in 10 ml lysis buffer (50 mM tris(hydroxymethyl)aminomethane hydrochloride (Tris/HCl, Sigma, Germany, cat. no. T5941) pH 7.5, 300 mM sodium chloride (NaCl, Sigma, Germany, cat. no. S7653), 5% (w/v) glycerol (Sigma, Germany, cat. no. G5516), 3 mM DTT dithiotreitol (DTT, Sigma, Germany, cat. no. D9779)) per gram wet weight cell pellet. Lysates were prepared by disruption of cells with a sonifier and subsequent clearing by centrifugation at 38000 g for 45 min at 4° C.
The lysate was applied to a GSTPrep FF 16/10 column (Amersham, Sweden, cat. no. 17-5234-01) equilibrated with lysis buffer. Removal of unbound material was with 3 column volumes (CV) lysis buffer. Elution was with 2 CV of elution buffer (50 mM Tris/HCl pH 7.5, 300 mM NaCl, 5% (w/v) glycerol, 20 mM glutathione (Sigma, Germany, cat. no. G4251)). Peak fractions were pooled and the protein transferred into storage buffer (50 mM Tris/HCl pH 7.5, 200 mM NaCl, 0.1 mM ethylene glycolbis(2-aminoethylether)-N,N,N′,N′-tetraacetic acid (EGTA, Aldrich, Germany, cat. no. 23, 453-2), 1 mM DTT, 10% (w/v) glycerol, 0.5 M sucrose (Sigma, Germany, cat. no. S0389) by gel filtration on a PD10 desalting column (Amersham, Sweden, cat. no. 17-0851-01). Aliquots were shock frozen in liquid nitrogen and stored at −80° C.
Activation of Mnk1 and Mnk2a was at a concentration of 2.5 μM of either purified GST-Mnk1 or GST-Mnk2a by incubation with 150 nM pre-activated NHis-ERK2 (see ERK2 assay for preparation) and 50 μM adenosine triphosphate (ATP, Sigma, cat. no. A2699) in a buffer comprising 20 mM N-(2-hydroxyethyl)piperazine-N′-(2-ethanesulfonic acid) (HEPES, Fluka, Germany, cat. no 54459)/potassium hydroxide (KOH, Roth, Germany, cat. no 6751.1) pH 7.4, 10 mM magnesium chloride (MgCl2, Sigma, Germany, cat. no. M2670), 0.25 mM DTT, 0.05% (w/v) polyoxyethylene 20 stearylether (Brij 78, Sigma, Germany, cat. no. P4019) (HMDB buffer) for 45 min at 30° C. […]

T1 sequence (Q9HBH9 whole entry): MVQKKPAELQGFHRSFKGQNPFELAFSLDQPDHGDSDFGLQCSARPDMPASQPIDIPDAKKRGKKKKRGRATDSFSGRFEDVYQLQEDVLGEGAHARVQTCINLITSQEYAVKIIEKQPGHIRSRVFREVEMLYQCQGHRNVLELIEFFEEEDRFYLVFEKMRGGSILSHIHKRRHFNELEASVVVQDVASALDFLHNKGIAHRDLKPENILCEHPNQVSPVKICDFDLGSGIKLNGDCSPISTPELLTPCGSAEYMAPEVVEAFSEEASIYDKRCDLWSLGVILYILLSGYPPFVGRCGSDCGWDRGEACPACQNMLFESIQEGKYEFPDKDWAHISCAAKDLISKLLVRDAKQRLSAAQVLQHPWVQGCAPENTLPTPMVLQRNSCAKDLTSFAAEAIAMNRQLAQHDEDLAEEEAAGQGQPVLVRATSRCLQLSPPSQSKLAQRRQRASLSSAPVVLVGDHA

SMILES	IC50 [nM]
CO[C@H]1CCC[C@@H](Oc2cc(F)ccc2Nc2ncnc3sc(C(=O)NCCCCO)c(C)c23)C1 (racemic) [Example 92]	36
CNC(=O)CNC(=O)c1sc2ncnc(Nc3ccc(F)cc3O[C@@H]3CCC[C@H](OC)C3)c2c1C (racemic) [Example 95]	28
CO[C@H]1CCC[C@@H](Oc2cc(F)ccc2Nc2ncnc3sc(C(=O)N[C@H]4CC[C@H](O)CC4)c(C)c23)C1 (racemic) [Example 100]	34
CO[C@H]1CCC[C@@H](Oc2cc(F)ccc2Nc2ncnc3sc(C(=O)NCCN4CCCCC4)c(C)c23)C1 (racemic) [Example 103]	50
CNC(=O)CNC(=O)c1sc2ncnc(Nc3cccnc3O[C@@H]3CCC[C@H](OC)C3)c2c1C (racemic) [Example 116]	33
CO[C@H]1CCC[C@@H](Oc2ncccc2Nc2ncnc3sc(C(=O)N[C@H]4CC[C@H](O)CC4)c(C)c23)C1 (racemic) [Example 121]	41
CO[C@H]1CCC[C@@H](Oc2ncccc2Nc2ncnc3sc(C(=O)NCCN4CCCCC4)c(C)c23)C1 (racemic) [Example 124]	36
CO[C@@H]1CCC[C@@H](Oc2ncccc2Nc2ncnc3sc(C(=O)NCC#CCN)c(C)c23)C1 (racemic) [Example 133]	53
CO[C@@H]1CCC[C@@H](Oc2ncccc2Nc2ncnc3sc(C(=O)NCCCCO)c(C)c23)C1 (racemic) [Example 134]	86
CO[C@@H]1CCC[C@@H](Oc2ncccc2Nc2ncnc3sc(C(=O)NCc4cnco4)c(C)c23)C1 (racemic) [Example 135]	65
CO[C@@H]1CCC[C@@H](Oc2ncccc2Nc2ncnc3sc(C(=O)NCC#N)c(C)c23)C1 (racemic) [Example 136]	44
CNC(=O)CNC(=O)c1sc2ncnc(Nc3cccnc3O[C@@H]3CCC[C@@H](OC)C3)c2c1C (racemic) [Example 137]	105
CO[C@@H]1CCC[C@@H](Oc2ncccc2Nc2ncnc3sc(C(=O)NCC#CCN(C)C)c(C)c23)C1 (racemic) [Example 138]	48
CO[C@@H]1CCC[C@@H](Oc2ncccc2Nc2ncnc3sc(C(=O)NCCCN4CCOCC4)c(C)c23)C1 (racemic) [Example 139]	84
CO[C@@H]1CCC[C@@H](Oc2ncccc2Nc2ncnc3sc(C(=O)N[C@H]4CC[C@H](O)CC4)c(C)c23)C1 (racemic) [Example 142]	125
CO[C@@H]1CCC[C@@H](Oc2ncccc2Nc2ncnc3sc(C(=O)NC4CCN(C)CC4)c(C)c23)C1 (racemic) [Example 144]	89
CO[C@@H]1CCC[C@@H](Oc2ncccc2Nc2ncnc3sc(C(=O)NCCN4CCCCC4)c(C)c23)C1 (racemic) [Example 145]	68
CO[C@@H]1CCC[C@@H](Oc2ncccc2Nc2ncnc3sc(C(=O)NCCCO)c(C)c23)C1 (racemic) [Example 147]	83
CO[C@@H]1CCC[C@@H](Oc2ncccc2Nc2ncnc3sc(C(=O)NCCCN4CCCC4)c(C)c23)C1 (racemic) [Example 148]	49
CN[C@H]1CCC[C@@H](Oc2cc(F)ccc2Nc2ncnc3sc(C(N)=O)c(C)c23)C1 (relative stereo) [Example 17, 4-(4-Fluoro-2-(cis-3-(N-methylamino)cyclohexyloxy)phenylamino)-5-methylthieno[2,3-d]pyrimidine-6-carboxamide]	28

The next compounds have a lower IC50 than those just listed; values first:

IC50 [nM]	SMILES
24	CO[C@H]1CCC[C@@H](Oc2cc(F)ccc2Nc2ncnc3sc(C(=O)NCCCN4CCOCC4)c(C)c23)C1 (racemic) [Example 97]
24	CO[C@H]1CCC[C@@H](Oc2cc(F)ccc2Nc2ncnc3sc(C(=O)NCCCO)c(C)c23)C1 (racemic) [Example 105]
24	CCNC(=O)c1sc2ncnc(Nc3ccc(F)cc3O[C@@H]3CCC[C@H](OC)C3)c2c1C (racemic) [Example 109]
24	CCNC(=O)c1sc2ncnc(Nc3cccnc3O[C@@H]3CCC[C@H](OC)C3)c2c1C (racemic) [Example 130]
23	CO[C@H]1CCC[C@@H](Oc2ncccc2Nc2ncnc3sc(C(=O)NCCCCO)c(C)c23)C1 (racemic) [Example 113]
22	CO[C@H]1CCC[C@@H](Oc2cc(F)ccc2Nc2ncnc3sc(C(=O)NCCCN4CCCC4)c(C)c23)C1 (racemic) [Example 106]
22	CO[C@H]1CCC[C@@H](Oc2ncccc2Nc2ncnc3sc(C(=O)NCCCN4CCOCC4)c(C)c23)C1 (racemic) [Example 118]
21	CO[C@H]1CCC[C@@H](Oc2cc(F)ccc2Nc2ncnc3sc(C(=O)NCCO)c(C)c23)C1 (racemic) [Example 101]
21	Cc1c(C(N)=O)sc2ncnc(Nc3ccc(F)cc3O[C@@H]3CCC[C@@H](O)[C@H]3O)c12 (relative stereo) [Example 2]
19	CO[C@H]1CCC[C@@H](Oc2ncccc2Nc2ncnc3sc(C(=O)NCc4cnco4)c(C)c23)C1 (racemic) [Example 114]
19	CO[C@H]1CCC[C@@H](Oc2ncccc2Nc2ncnc3sc(C(=O)NCc4cn(C)cn4)c(C)c23)C1 (racemic) [Example 128]
18	CO[C@H]1CCC[C@@H](Oc2ncccc2Nc2ncnc3sc(C(=O)NCCO)c(C)c23)C1 (racemic) [Example 122]
18	CO[C@@H]1CCC[C@@H](Oc2ncccc2Nc2ncnc3sc(C(N)=O)c(C)c23)C1 (racemic) [Example 131, Racemic 4-[2-((trans)-3-Methoxy-cyclohexyloxy)-pyridin-3-ylamino]-5-methyl-thieno[2,3-d]pyrimidine-6-carboxylic acid amide]
16	CO[C@H]1CCC[C@@H](Oc2cc(F)ccc2Nc2ncnc3sc(C(=O)NCC#CCN)c(C)c23)C1 (racemic) [Example 91]
16	CO[C@H]1CCC[C@@H](Oc2cc(F)ccc2Nc2ncnc3sc(C(=O)NCc4cnco4)c(C)c23)C1 (racemic) [Example 93]
16	CO[C@H]1CCC[C@@H](Oc2ncccc2Nc2ncnc3sc(C(=O)NCCCN4CCCC4)c(C)c23)C1 (racemic) [Example 127]
13	CO[C@H]1CCC[C@@H](Oc2ncccc2Nc2ncnc3sc(C(=O)NCC#CCN)c(C)c23)C1 (racemic) [Example 112]
13	Cc1c(C(N)=O)sc2ncnc(Nc3ccc(F)cc3O[C@@H]3CCC[C@H]4OC(C)(C)O[C@@H]34)c12 (relative stereo) [Example 1]
9	COC(=O)c1sc2ncnc(Nc3cccnc3O[C@@H]3CCC[C@H](OC)C3)c2c1C (racemic) [Example 110.1, Racemic 4-[2-((cis)-3-Methoxy-cyclohexyloxy)-pyridin-3-ylamino]-5-methyl-thieno[2,3-d]pyrimidine-6-carboxylic acid methylester]
8	CO[C@H]1CCC[C@@H](Oc2cc(F)ccc2Nc2ncnc3sc(C(N)=O)c(C)c23)C1 (racemic) [Example 89, Racemic 4-[4-Fluoro-2-((cis)-3-methoxy-cyclohexyloxy)-phenylamino]-5-methyl-thieno[2,3-d]pyrimidine-6-carboxylic acid amide]
